In the supplement of paper PMC8741786:
In brackets after ≈: the same amount, converted by molar mass.

Key:
Test in all cases: minimum inhibitory concentration (ETEST)
Neisseria lactamica = conditions: population: general population, antibiotic use in previous 6 months: No
Experimental: (§1)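 Oropharyngeal Neisseria isolates from MSM and employees in Belgium were identified to species by MALDI-TOF MS. MICs of azithromycin, ceftriaxone and ciprofloxacin were determined by ETEST on GC agar after 24 h at 36.5 °C and 5-7% CO2, in mg/L. Values beyond the strip range are reported as >256 (azithromycin) or <0.016 (ceftriaxone); isolates that did not grow are NA.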

Neisseria meningitidis = test system: Neisseria meningitidis
Experimental: as §1

Neisseria oralis = conditions: population: general population, antibiotic use in previous 6 months: No
Experimental: as §1

Neisseria cinerea = conditions: population: general population, antibiotic use in previous 6 months: No
Experimental: as §1

Neisseria elongata = conditions: population: general population, antibiotic use in previous 6 months: No
Experimental: as §1

Neisseria gonorrhoeae = conditions: isolate id (sample isolate): 19113052_3; population: MSM; antibiotic use in previous 6 months: No
Experimental: as §1

Neisseria bacilliformis = conditions: isolate id (sample isolate): Co000780_5; population: general population; antibiotic use in previous 6 months: No
Experimental: as §1

O=C(O)c1cn(C2CC2)c2cc(N3CCNCC3)c(F)cc2c1=O [ciprofloxacin]
Conditions | minimum inhibitory concentration [ng/mL]
Neisseria cinerea, isolate id (sample isolate): Co000769_3 | 6 (≈ 0.0181 µM)
Neisseria cinerea, isolate id (sample isolate): Co000776_4 | 32 (≈ 0.0966 µM)
Neisseria cinerea, isolate id (sample isolate): Co000776_5 | 32 (≈ 0.0966 µM)
Neisseria cinerea, isolate id (sample isolate): Co000782_1 | 12 (≈ 0.0362 µM)
Neisseria elongata, isolate id (sample isolate): Co000767_3 | 4 (≈ 0.0121 µM)
Neisseria elongata, isolate id (sample isolate): Co000780_1 | 4 (≈ 0.0121 µM)
Neisseria elongata, isolate id (sample isolate): Co000783_4 | 23 (≈ 0.0694 µM)
Neisseria lactamica, isolate id (sample isolate): Co000761_1 | 190 (≈ 0.573 µM)
Neisseria lactamica, isolate id (sample isolate): Co000771_1 | 64 (≈ 0.193 µM)
Neisseria oralis, isolate id (sample isolate): Co000761_7 | 16 (≈ 0.0483 µM)
Neisseria oralis, isolate id (sample isolate): Co000763_1 | 12 (≈ 0.0362 µM)
Neisseria oralis, isolate id (sample isolate): Co000766_2 | 23 (≈ 0.0694 µM)
Neisseria oralis, isolate id (sample isolate): Co000770_1 | 16 (≈ 0.0483 µM)
Neisseria oralis, isolate id (sample isolate): Co000774_1 | 23 (≈ 0.0694 µM)
Neisseria oralis, isolate id (sample isolate): Co000776_1 | 16 (≈ 0.0483 µM)
Neisseria oralis, isolate id (sample isolate): Co000776_1.1 | 12 (≈ 0.0362 µM)
Neisseria oralis, isolate id (sample isolate): Co000779_2 | 12 (≈ 0.0362 µM)
Neisseria oralis, isolate id (sample isolate): Co000790_5 | 6 (≈ 0.0181 µM)

Neisseria meningitidis
Conditions | minimum inhibitory concentration [ng/mL]
isolate id (sample isolate): 19040471_1, population: MSM, antibiotic use in previous 6 months: No | 3 (≈ 0.00905 µM)
isolate id (sample isolate): 19040855_1, population: MSM, antibiotic use in previous 6 months: No | 4 (≈ 0.0121 µM)
isolate id (sample isolate): 19040874_2, population: MSM, antibiotic use in previous 6 months: No | 4 (≈ 0.0121 µM)
isolate id (sample isolate): 19040900_2, population: MSM, antibiotic use in previous 6 months: No | 4 (≈ 0.0121 µM)
isolate id (sample isolate): 19042150_2, population: MSM, antibiotic use in previous 6 months: Yes | 2 (≈ 0.00604 µM)
isolate id (sample isolate): 19042756_3, population: MSM, antibiotic use in previous 6 months: Yes | 8 (≈ 0.0241 µM)
isolate id (sample isolate): 19043201_1, population: MSM, antibiotic use in previous 6 months: No | 3 (≈ 0.00905 µM)
isolate id (sample isolate): 19043201_2, population: MSM, antibiotic use in previous 6 months: No | 3 (≈ 0.00905 µM)
isolate id (sample isolate): 19043274_1, population: MSM, antibiotic use in previous 6 months: Yes | 4 (≈ 0.0121 µM)
isolate id (sample isolate): 19043274_2, population: MSM, antibiotic use in previous 6 months: Yes | 4 (≈ 0.0121 µM)
isolate id (sample isolate): 19051853_1, population: MSM, antibiotic use in previous 6 months: No | 4 (≈ 0.0121 µM)
isolate id (sample isolate): 19052394_3, population: MSM, antibiotic use in previous 6 months: Yes | 2 (≈ 0.00604 µM)
isolate id (sample isolate): 19052434_1, population: MSM, antibiotic use in previous 6 months: Yes | 6 (≈ 0.0181 µM)
isolate id (sample isolate): 19060069_1, population: MSM, antibiotic use in previous 6 months: Yes | 6 (≈ 0.0181 µM)
isolate id (sample isolate): 19060069_2, population: MSM, antibiotic use in previous 6 months: Yes | 4 (≈ 0.0121 µM)
isolate id (sample isolate): 19060089_2, population: MSM, antibiotic use in previous 6 months: Yes | 2 (≈ 0.00604 µM)
isolate id (sample isolate): 19061666_1, population: MSM, antibiotic use in previous 6 months: Yes | 64 (≈ 0.193 µM)
isolate id (sample isolate): 19062990_1, population: MSM, antibiotic use in previous 6 months: Yes | 4 (≈ 0.0121 µM)
isolate id (sample isolate): 19070019_2, population: MSM, antibiotic use in previous 6 months: No | 3 (≈ 0.00905 µM)
isolate id (sample isolate): 19070019_4, population: MSM, antibiotic use in previous 6 months: No | 3 (≈ 0.00905 µM)
isolate id (sample isolate): 19070047_1, population: MSM, antibiotic use in previous 6 months: No | 6 (≈ 0.0181 µM)
isolate id (sample isolate): 19082621_2, population: MSM, antibiotic use in previous 6 months: No | 4 (≈ 0.0121 µM)
isolate id (sample isolate): 19091461_1, population: MSM, antibiotic use in previous 6 months: No | 8 (≈ 0.0241 µM)
isolate id (sample isolate): 19091461_2, population: MSM, antibiotic use in previous 6 months: No | 8 (≈ 0.0241 µM)
isolate id (sample isolate): 19091973_1, population: MSM, antibiotic use in previous 6 months: No | 3 (≈ 0.00905 µM)
isolate id (sample isolate): 19092429_3, population: MSM, antibiotic use in previous 6 months: No | 3 (≈ 0.00905 µM)
isolate id (sample isolate): 19103457_1, population: MSM, antibiotic use in previous 6 months: No | 3 (≈ 0.00905 µM)
isolate id (sample isolate): 19103457_4, population: MSM, antibiotic use in previous 6 months: No | 3 (≈ 0.00905 µM)
isolate id (sample isolate): 19110394_1, population: MSM, antibiotic use in previous 6 months: No | 3 (≈ 0.00905 µM)
isolate id (sample isolate): 19113049_3, population: MSM, antibiotic use in previous 6 months: No | 4 (≈ 0.0121 µM)
isolate id (sample isolate): 19113049_6, population: MSM, antibiotic use in previous 6 months: No | 3 (≈ 0.00905 µM)
isolate id (sample isolate): Co000765_1, population: general population, antibiotic use in previous 6 months: No | 4 (≈ 0.0121 µM)
isolate id (sample isolate): Co000790_1, population: general population, antibiotic use in previous 6 months: No | 125 (≈ 0.377 µM)
isolate id (sample isolate): Co000790_3, population: general population, antibiotic use in previous 6 months: No | 125 (≈ 0.377 µM)

Conditions | minimum inhibitory concentration [ng/mL]
Neisseria bacilliformis | 125 (≈ 0.377 µM)
Neisseria gonorrhoeae | 2000 (≈ 6.04 µM)
